Test results from ChEMBL document CHEMBL5260810, “Inhibition of bromodomain-containing protein 9 for the prevention of epigenetically-defined drug resistance” (Bioorg Med Chem Lett, 2017).

Legend:
[1] = tested on: Caco-2; test: Cytotoxicity against human Caco-2 cells measured after 8 days; type: functional, cell-based; details: Caco-2, 192 h
[2] = Cytotoxicity against human NCI-H2810 cells measured after 8 days; type: functional, cell-based; details: NCI-H2810, 192 h
[3] = tested on: T47D; test: Cytotoxicity against human T47D cells measured after 8 days; type: functional, cell-based; details: 192 h
[4] = tested on: GTL 16 cell line; test: Cytotoxicity against human GTL 16 cell line measured after 8 days; type: functional, cell-based; details: GTL 16, 192 h
[5] = tested on: CX-1; test: Cytotoxicity against human CX-1 cells measured after 8 days; type: functional, cell-based; details: CX-1, 192 h
[6] = Cytotoxicity against human NCI-H2731 cells measured after 8 days; type: functional, cell-based; details: NCI-H2731, 192 h
[7] = tested on: HCT-15; test: Cytotoxicity against human HCT-15 cells measured after 8 days; type: functional, cell-based; details: HCT-15, 192 h
[8] = tested on: MEL-JUSO; test: Cytotoxicity against human MEL-JUSO cells measured after 8 days; type: functional, cell-based; details: 192 h
[9] = target: Tyrosine-protein kinase Yes (Homo sapiens) (UniProt P07947); test: Inhibition of Yes (unknown origin) at 1 uM relative to control
[10] = target: Nucleosome-remodeling factor subunit BPTF (Homo sapiens, UniProt Q12830); test: Binding affinity to human partial length FALZ (S2791 to H2911 residues) expressed in bacterial expression system by BROMOscan assay
[11] = tested on: SU-DHL-16; test: Cytotoxicity against human SU-DHL-16 cells measured after 8 days; type: functional, cell-based; details: SU-DHL-16, 192 h
[12] = tested on: LS180; test: Cytotoxicity against human LS180 cells measured after 8 days; type: functional, cell-based; details: LS180, 192 h
[13] = target: Bromodomain-containing protein 4 (Homo sapiens, UniProt O60885); test: Binding affinity to human partial length BRD4 bromodomain 1 long isoform (N44 to E168 residues) expressed in bacterial expression system by BROMOscan assay
[14] = Cytotoxicity against human NCI-H2023 cells measured after 8 days; type: functional, cell-based; details: NCI-H2023, 192 h
[15] = tested on: Daudi; test: Cytotoxicity against human Daudi cells measured after 8 days; type: functional, cell-based; details: 192 h
[16] = tested on: JeKo-1; test: Cytotoxicity against human JeKo-1 cells measured after 8 days; type: functional, cell-based; details: JeKo-1, 192 h
[17] = target: Bromodomain adjacent to zinc finger domain protein 2B (Homo sapiens, UniProt Q9UIF8); test: Binding affinity to human partial length BAZ2B (S2054 to S2168 residues) expressed in bacterial expression system by BROMOscan assay
[18] = tested on: HPAC; test: Cytotoxicity against human HPAC cells measured after 8 days; type: functional, cell-based; details: 192 h
[19] = tested on: CW-2; test: Cytotoxicity against human CW-2 cells measured after 8 days; type: functional, cell-based; details: CW-2, 192 h
[20] = target: Adenosine receptor A2a (Homo sapiens) (UniProt P29274); test: Displacement of [3H]-CGS 21680 from human recombinant adenosine A2A receptor at 10 uM after 120 mins by scintillation counting analysis relative to control
[21] = tested on: HCC44; test: Cytotoxicity against human HCC44 cells measured after 8 days; type: functional, cell-based; details: HCC44, 192 h
[22] = Cytotoxicity against human NCI-H2595 cells measured after 8 days; type: functional, cell-based; details: NCI-H2595, 192 h
[23] = Cytotoxicity against human OCI-M2 cells measured after 8 days; type: functional, cell-based; details: OCI-M2, 192 h
[24] = target: Bromodomain testis-specific protein (Homo sapiens, UniProt Q58F21); test: Binding affinity to human partial length BRDT bromodomain 2 (K250 to E382 residues) expressed in bacterial expression system by BROMOscan assay
[25] = tested on: CA46; test: Cytotoxicity against human CA46 cells measured after 8 days; type: functional, cell-based; details: CA46, 192 h
[26] = target: Macrophage colony-stimulating factor 1 receptor (Homo sapiens) (UniProt P07333); test: Inhibition of CSF1R (unknown origin) at 1 uM relative to control
[27] = tested on: MV4-11; test: Cytotoxicity against human MV4-11 cells measured after 8 days; type: functional, cell-based; details: MV4-11, 192 h
[28] = Cytotoxicity against human NCI-H2373 cells measured after 8 days; type: functional, cell-based; details: NCI-H2373, 192 h
[29] = target: Aurora kinase B (Homo sapiens) (UniProt Q96GD4); test: Inhibition of Aurora B (unknown origin) at 1 uM relative to control
[30] = Cytotoxicity against human PL-21 cells measured after 8 days; type: functional, cell-based; details: PL-21, 192 h
[31] = tested on: EOL1; test: Cytotoxicity against human EOL1 cells measured after 8 days; type: functional, cell-based; details: EOL1, 192 h
[32] = tested on: NCI-H650; test: Cytotoxicity against human NCI-H650 cells measured after 8 days; type: functional, cell-based; details: NCI-H650, 192 h
[33] = tested on: MDA-MB-231; test: Cytotoxicity against human MDA-MB-231 cells measured after 8 days; type: functional, cell-based; details: MDA-MB-231, 192 h
[34] = Cytotoxicity against human HCC2279 cells measured after 8 days; type: functional, cell-based; details: HCC2279, 192 h
[35] = tested on: DLD-1; test: Cytotoxicity against human DLD-1 cells measured after 8 days; type: functional, cell-based; details: DLD-1, 192 h
[36] = tested on: PA-1; test: Cytotoxicity against human PA-1 cells measured after 8 days; type: functional, cell-based; details: PA-1, 192 h
[37] = tested on: UMC-11; test: Cytotoxicity against human UMC-11 cells measured after 8 days; type: functional, cell-based; details: UMC-11, 192 h
[38] = Cytotoxicity against human NCE-G 111 cells measured after 8 days; type: functional, cell-based; details: NCE-G 111, 192 h
[39] = target: cAMP-dependent protein kinase (PKA) (Homo sapiens) (UniProt P22694+P17612+P22612); test: Inhibition of PKA (unknown origin) at 1 uM relative to control; type: protein assay
[40] = target: Dual specificity mitogen-activated protein kinase kinase 1 (Homo sapiens) (UniProt Q02750); test: Inhibition of MEK1 (unknown origin) at 1 uM relative to control
[41] = Cytotoxicity against human OVCA429 cells measured after 8 days; type: functional, cell-based; details: OVCA429, 192 h
[42] = target: Dual specificity protein kinase CLK2 (Homo sapiens) (UniProt P49760); test: Inhibition of CLK2 (unknown origin) at 1 uM relative to control
[43] = tested on: SK-MES-1; test: Cytotoxicity against human SK-MES-1 cells measured after 8 days; type: functional, cell-based; details: SK-MES-1, 192 h
[44] = species on record: Homo sapiens; test: Displacement of [3H] Dofetilide from human potassium channel at 10 uM relative to control
[45] = tested on: NCI-H2228; test: Cytotoxicity against human NCI-H2228 cells measured after 8 days; type: functional, cell-based; details: NCI-H2228, 192 h
[46] = tested on: DU-145; test: Cytotoxicity against human DU-145 cells measured after 8 days; type: functional, cell-based; details: DU-145, 192 h
[47] = target: Sodium-dependent dopamine transporter (Homo sapiens) (UniProt Q01959); test: Displacement of […] from recombinant human Dopamine transporter at 10 uM after 120 mins by scintillation counting analysis relative to control
[48] = target: Cyclin-dependent kinase 5/CDK5 activator 1 (Homo sapiens) (UniProt Q00535+Q15078); test: Inhibition of CDK5/p25 (unknown origin) at 1 uM relative to control; type: protein-complex assay
[49] = Cytotoxicity against human VMRC-LCD cells measured after 8 days; type: functional, cell-based; details: 192 h
[50] = tested on: HCC4017; test: Cytotoxicity against human HCC4017 cells measured after 8 days; type: functional, cell-based; details: HCC4017, 192 h

Chain of Dual specificity protein kinase CLK2 (Homo sapiens) (P49760 whole entry, looked up): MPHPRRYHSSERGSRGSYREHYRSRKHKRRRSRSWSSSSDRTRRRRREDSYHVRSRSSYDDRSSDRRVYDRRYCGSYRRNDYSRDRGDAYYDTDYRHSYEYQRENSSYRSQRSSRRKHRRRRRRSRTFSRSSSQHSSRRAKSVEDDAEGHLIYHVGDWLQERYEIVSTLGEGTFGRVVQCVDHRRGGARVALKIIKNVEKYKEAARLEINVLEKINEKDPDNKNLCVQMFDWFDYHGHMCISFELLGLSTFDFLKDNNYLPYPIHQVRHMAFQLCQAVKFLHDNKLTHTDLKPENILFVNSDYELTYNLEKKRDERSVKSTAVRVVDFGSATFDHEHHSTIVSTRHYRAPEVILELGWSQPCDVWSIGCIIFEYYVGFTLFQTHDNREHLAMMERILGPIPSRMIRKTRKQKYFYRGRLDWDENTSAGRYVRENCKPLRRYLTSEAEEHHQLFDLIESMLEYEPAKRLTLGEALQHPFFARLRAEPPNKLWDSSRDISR
Chain of Sodium-dependent dopamine transporter (Homo sapiens) (Q01959 whole entry): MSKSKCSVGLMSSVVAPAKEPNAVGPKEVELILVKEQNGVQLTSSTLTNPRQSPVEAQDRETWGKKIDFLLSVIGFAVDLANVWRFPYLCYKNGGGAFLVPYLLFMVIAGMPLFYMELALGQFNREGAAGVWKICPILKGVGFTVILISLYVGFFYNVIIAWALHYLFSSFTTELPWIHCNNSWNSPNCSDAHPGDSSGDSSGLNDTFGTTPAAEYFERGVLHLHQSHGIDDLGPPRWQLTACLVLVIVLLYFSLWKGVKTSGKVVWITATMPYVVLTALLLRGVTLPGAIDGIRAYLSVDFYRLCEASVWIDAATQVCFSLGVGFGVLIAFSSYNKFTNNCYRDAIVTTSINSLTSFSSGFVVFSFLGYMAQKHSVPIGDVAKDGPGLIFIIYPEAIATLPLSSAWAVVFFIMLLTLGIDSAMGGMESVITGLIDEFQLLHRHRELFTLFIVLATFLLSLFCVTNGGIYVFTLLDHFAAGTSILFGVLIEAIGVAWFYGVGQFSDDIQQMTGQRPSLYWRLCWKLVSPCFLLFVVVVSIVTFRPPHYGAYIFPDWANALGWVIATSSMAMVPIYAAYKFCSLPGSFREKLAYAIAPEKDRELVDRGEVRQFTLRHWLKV
Chain of Dual specificity mitogen-activated protein kinase kinase 1 (Homo sapiens) (Q02750 whole entry): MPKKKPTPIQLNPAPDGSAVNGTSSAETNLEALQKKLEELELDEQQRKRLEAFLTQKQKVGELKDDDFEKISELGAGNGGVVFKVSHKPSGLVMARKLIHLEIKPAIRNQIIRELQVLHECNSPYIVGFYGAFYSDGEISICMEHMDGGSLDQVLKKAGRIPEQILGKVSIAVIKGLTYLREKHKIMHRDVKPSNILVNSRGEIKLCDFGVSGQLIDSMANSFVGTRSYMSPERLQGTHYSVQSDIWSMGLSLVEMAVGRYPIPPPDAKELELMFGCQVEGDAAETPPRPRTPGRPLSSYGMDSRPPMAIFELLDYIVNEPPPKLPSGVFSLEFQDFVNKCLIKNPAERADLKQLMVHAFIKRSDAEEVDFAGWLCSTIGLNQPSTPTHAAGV
Chain of Adenosine receptor A2a (Homo sapiens) (P29274 whole entry): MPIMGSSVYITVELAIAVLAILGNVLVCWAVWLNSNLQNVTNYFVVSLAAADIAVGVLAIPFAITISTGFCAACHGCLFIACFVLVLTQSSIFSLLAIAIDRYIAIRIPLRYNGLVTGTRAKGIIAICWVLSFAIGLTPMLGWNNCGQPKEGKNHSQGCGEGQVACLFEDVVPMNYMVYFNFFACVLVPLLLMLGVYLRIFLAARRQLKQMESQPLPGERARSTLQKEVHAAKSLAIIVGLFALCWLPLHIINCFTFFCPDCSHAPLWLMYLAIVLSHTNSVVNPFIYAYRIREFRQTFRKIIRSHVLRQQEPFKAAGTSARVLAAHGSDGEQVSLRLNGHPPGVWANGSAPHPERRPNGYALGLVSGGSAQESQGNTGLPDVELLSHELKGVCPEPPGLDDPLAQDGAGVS
Chain of Macrophage colony-stimulating factor 1 receptor (Homo sapiens) (P07333 whole entry): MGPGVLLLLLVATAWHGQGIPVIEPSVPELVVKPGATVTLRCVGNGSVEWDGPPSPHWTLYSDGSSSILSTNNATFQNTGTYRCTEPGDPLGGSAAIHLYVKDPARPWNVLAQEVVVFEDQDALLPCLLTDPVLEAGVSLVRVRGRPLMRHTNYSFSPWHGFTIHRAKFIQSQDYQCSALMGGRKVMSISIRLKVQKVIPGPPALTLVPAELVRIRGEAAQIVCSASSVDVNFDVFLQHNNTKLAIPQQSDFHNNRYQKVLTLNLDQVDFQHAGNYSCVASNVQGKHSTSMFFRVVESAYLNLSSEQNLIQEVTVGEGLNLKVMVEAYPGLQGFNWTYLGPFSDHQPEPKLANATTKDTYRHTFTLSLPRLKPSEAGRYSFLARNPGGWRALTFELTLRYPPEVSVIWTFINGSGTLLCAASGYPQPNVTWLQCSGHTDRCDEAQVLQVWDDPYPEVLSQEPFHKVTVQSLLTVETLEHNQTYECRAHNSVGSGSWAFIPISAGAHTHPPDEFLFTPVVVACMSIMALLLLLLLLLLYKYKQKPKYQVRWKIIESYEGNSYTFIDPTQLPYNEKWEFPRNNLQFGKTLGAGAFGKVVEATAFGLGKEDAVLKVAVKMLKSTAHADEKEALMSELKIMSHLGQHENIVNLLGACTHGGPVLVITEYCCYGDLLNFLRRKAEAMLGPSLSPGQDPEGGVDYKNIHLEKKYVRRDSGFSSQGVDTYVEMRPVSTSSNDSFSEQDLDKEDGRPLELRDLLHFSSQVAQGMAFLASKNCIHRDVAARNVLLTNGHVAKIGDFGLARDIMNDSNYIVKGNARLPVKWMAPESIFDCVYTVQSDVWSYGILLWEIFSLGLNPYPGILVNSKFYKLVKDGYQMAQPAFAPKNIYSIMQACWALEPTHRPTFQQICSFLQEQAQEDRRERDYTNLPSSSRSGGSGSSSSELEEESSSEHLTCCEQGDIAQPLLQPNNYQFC
Chain of Bromodomain adjacent to zinc finger domain protein 2B (Q9UIF8 whole entry, the tested form may be a part): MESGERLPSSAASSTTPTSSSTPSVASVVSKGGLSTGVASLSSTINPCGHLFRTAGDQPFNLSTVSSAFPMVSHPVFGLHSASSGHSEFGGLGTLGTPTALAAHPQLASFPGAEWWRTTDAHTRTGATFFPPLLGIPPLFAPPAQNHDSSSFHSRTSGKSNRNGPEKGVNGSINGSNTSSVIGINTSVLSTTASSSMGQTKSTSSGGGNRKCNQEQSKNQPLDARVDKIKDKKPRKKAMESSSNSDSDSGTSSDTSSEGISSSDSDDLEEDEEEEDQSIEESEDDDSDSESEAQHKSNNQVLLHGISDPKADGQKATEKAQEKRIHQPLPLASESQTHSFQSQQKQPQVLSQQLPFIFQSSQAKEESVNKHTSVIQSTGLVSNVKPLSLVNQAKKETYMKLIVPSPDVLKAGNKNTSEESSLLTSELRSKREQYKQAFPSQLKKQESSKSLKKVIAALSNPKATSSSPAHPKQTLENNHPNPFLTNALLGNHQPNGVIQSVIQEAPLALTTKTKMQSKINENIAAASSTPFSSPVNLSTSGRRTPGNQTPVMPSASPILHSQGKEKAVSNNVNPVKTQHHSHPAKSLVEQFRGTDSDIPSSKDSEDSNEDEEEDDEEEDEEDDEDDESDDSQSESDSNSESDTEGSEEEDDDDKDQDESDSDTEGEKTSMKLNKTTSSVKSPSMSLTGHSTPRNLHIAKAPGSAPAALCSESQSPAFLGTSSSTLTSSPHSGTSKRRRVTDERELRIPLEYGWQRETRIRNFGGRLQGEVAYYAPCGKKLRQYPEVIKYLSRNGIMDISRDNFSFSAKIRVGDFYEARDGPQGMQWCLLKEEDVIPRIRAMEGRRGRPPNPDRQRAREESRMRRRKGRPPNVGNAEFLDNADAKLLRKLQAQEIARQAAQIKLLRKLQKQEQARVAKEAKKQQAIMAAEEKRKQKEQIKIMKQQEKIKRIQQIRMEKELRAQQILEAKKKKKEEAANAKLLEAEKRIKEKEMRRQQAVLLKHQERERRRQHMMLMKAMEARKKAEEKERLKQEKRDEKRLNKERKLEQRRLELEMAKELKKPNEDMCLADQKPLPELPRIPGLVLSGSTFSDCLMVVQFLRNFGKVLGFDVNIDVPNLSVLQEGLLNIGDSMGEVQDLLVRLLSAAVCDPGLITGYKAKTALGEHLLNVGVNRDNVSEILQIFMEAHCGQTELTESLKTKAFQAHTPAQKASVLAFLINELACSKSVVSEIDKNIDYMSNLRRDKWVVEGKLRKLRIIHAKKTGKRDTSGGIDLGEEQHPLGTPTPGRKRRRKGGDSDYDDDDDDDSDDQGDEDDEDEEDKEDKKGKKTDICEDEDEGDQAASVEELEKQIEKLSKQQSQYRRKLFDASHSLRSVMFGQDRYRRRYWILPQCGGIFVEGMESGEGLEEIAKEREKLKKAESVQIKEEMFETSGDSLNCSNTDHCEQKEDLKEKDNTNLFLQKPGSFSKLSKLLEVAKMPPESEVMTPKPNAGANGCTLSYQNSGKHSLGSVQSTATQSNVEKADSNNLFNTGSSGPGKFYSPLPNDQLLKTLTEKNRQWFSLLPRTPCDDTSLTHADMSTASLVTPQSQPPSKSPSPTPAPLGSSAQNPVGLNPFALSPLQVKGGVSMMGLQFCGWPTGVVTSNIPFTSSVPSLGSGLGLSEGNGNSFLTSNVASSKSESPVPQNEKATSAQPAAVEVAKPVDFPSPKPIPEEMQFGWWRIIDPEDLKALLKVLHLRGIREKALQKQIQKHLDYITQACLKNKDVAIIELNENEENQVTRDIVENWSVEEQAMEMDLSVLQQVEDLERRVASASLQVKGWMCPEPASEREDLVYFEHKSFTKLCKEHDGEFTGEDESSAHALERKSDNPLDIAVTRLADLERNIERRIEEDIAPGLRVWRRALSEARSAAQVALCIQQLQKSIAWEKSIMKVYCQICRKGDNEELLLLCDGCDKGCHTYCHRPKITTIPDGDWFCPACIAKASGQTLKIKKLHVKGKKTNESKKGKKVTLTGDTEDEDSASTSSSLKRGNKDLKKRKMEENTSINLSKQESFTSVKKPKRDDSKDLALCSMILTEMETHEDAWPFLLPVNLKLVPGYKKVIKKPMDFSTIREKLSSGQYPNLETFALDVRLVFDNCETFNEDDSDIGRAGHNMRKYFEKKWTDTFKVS

C/C=C/Cn1cc(-c2ccc(C(C)(C)O)cc2OC)c2cc[nH]c2c1=O
IC50 [1]: 20 µM | IC50 [2]: 20 µM | IC50 [3]: 20 µM | IC50 [4]: 20 µM | IC50 [5]: 20 µM | IC50 [6]: 20 µM | IC50 [7]: 14.6 µM | IC50 [8]: 20 µM | inhibition [9]: 6% | Kd [10]: > 10 µM | IC50 [11]: 13.9 µM | IC50 [12]: 20 µM | Kd [13]: 1600 nM | IC50 [14]: 20 µM | IC50 [15]: 3.77 µM | IC50 [16]: 10.8 µM | Kd [17]: > 10 µM | IC50 [18]: 20 µM | IC50 [19]: 20 µM | Activity [20]: 8% | IC50 [21]: 20 µM | IC50 [22]: 20 µM | IC50 [23]: 20 µM | Kd [24]: 2.6 µM | IC50 [25]: 9.85 µM | inhibition [26]: 6.5% | IC50 [27]: 8.02 µM | IC50 [28]: 20 µM | inhibition [29]: -0.5% | IC50 [30]: 20 µM | IC50 [31]: 3300 nM | IC50 [32]: 20 µM | IC50 [33]: 20 µM | IC50 [34]: 20 µM | IC50 [35]: 20 µM | IC50 [36]: 16.4 µM | IC50 [37]: 20 µM | IC50 [38]: 20 µM | inhibition [39]: 3% | inhibition [40]: 1% | IC50 [41]: 20 µM | inhibition [42]: 8% | IC50 [43]: 20 µM | Activity [44]: -5% | IC50 [45]: 20 µM | IC50 [46]: 20 µM | Activity [47]: 15% | inhibition [48]: -0.5% | IC50 [49]: 20 µM | IC50 [50]: 20 µM

C/C=C/Cn1cc(-c2ccc(C(=O)N3CCOCC3)cc2)c2cc[nH]c2c1=O
IC50 [1]: 20 µM | IC50 [2]: 20 µM | IC50 [3]: 20 µM | IC50 [4]: 20 µM | IC50 [5]: 20 µM | IC50 [6]: 20 µM | IC50 [7]: 20 µM | IC50 [8]: 20 µM | inhibition [9]: 11.5% | Kd [10]: > 10 µM | IC50 [11]: 10.3 µM | IC50 [12]: 20 µM | Kd [13]: 1700 nM | IC50 [14]: 20 µM | IC50 [15]: 20 µM | IC50 [16]: 9.95 µM | Kd [17]: > 10 µM | IC50 [18]: 20 µM | IC50 [19]: 20 µM | Activity [20]: 8% | IC50 [21]: 20 µM | IC50 [22]: 20 µM | IC50 [23]: 5.21 µM | Kd [24]: 3.5 µM | IC50 [25]: 20 µM | inhibition [26]: 2.8% | IC50 [27]: 6.86 µM | IC50 [28]: 20 µM | inhibition [29]: -0.4% | IC50 [30]: 20 µM | IC50 [31]: 950 nM | IC50 [32]: 20 µM | IC50 [33]: 20 µM | IC50 [34]: 20 µM | IC50 [35]: 20 µM | IC50 [36]: 20 µM | IC50 [37]: 20 µM | IC50 [38]: 20 µM | inhibition [39]: -6.8% | inhibition [40]: 3% | IC50 [41]: 20 µM | inhibition [42]: 2% | IC50 [43]: 20 µM | Activity [44]: 13% | IC50 [45]: 20 µM | IC50 [46]: 20 µM | Activity [47]: 15% | inhibition [48]: -1.5% | IC50 [49]: 20 µM | IC50 [50]: 20 µM

C/C=C/Cn1cc(-c2cc(OC)c(C(C)(C)O)cc2OC)c2cc(C)[nH]c2c1=O
Kd [10]: > 10 µM | Kd [13]: 9400 nM | Kd [17]: > 10 µM | Kd [24]: 6.6 µM

C/C=C/Cn1cc(-c2cc(OC)c(C(=O)N3CCOCC3)cc2OC)c2cc(C)[nH]c2c1=O
IC50 [1]: 2 µM | IC50 [2]: 2 µM | IC50 [3]: 2 µM | IC50 [4]: 2 µM | IC50 [5]: 2 µM | IC50 [6]: 2 µM | IC50 [7]: 2 µM | IC50 [8]: 2 µM | inhibition [9]: 5.5% | Kd [10]: > 10 µM | IC50 [11]: 2 µM | IC50 [12]: 2 µM | Kd [13]: > 10000 nM | IC50 [14]: 2 µM | IC50 [15]: 2 µM | IC50 [16]: 2 µM | Kd [17]: > 10 µM | IC50 [18]: 2 µM | IC50 [19]: 2 µM | Activity [20]: 12% | IC50 [21]: 2 µM | IC50 [22]: 2 µM | IC50 [23]: 2 µM | Kd [24]: > 10 µM | IC50 [25]: 2 µM | inhibition [26]: 6.5% | IC50 [27]: 2 µM | IC50 [28]: 2 µM | inhibition [29]: 4.5% | IC50 [30]: 2 µM | IC50 [31]: 1340 nM | IC50 [32]: 2 µM | IC50 [33]: 2 µM | IC50 [34]: 2 µM | IC50 [35]: 2 µM | IC50 [36]: 2 µM | IC50 [37]: 2 µM | IC50 [38]: 2 µM | inhibition [39]: 6% | inhibition [40]: 4% | IC50 [41]: 1.77 µM | inhibition [42]: 7.5% | IC50 [43]: 2 µM | Activity [44]: 18% | IC50 [45]: 2 µM | IC50 [46]: 2 µM | Activity [47]: 11% | inhibition [48]: 0% | IC50 [49]: 2 µM | IC50 [50]: 2 µM
